# Test results as given in patent US20180193336A1, “SPRAY DRY FORMULATIONS” (Pulmokine, Inc., priority 2013, published 2018).
# Values joined by “and” are separate entries in the source; they are usually repeats but may differ in a detail not shown here. Equal values may be shown once. Read-outs that look alike come from different tables or passages of the source.
# How the values were obtained:
# [1] = Body weights of treated rats; format: in vivo, rat; conditions: D4 and D8 groups; FIG. 19
# PDGFRbeta = PDGFRbeta (Homo sapiens, UniProt P09619); conditions: FIG. 25
# Method: A Z-lyte kinase assay was performed to determine the inhibition of PDGFRalpha and PDGFRbeta mediated phosphorylation by PK10453 (Structure 2). Ten point titration curves were modeled to calculate the IC50 (Invitrogen Select Screen®).
# [2] = Systemic blood pressure study in ambulatory MCT treated rats; format: in vivo, rat
# Method: The effect of PK10453 (Structure 2) on systemic BP was studied in ambulatory MCT treated rats with DSI PAC40 transmitters implanted in the descending aorta. […] Blood pressure was recorded before each morning dose.
# [3] = system: phosphorylated AKT, STAT3 and ERK1/2 in lung extracts; assay: NanoPro immunoassay of lung extracts, rat MCT+PN model; format: in vivo
# Method: Relative differences in phosphorylated ERK1/2 and STAT isoforms were measured with a anoProlOO® immunoassay system (Protein Simple/Cell Biosciences, CA). See Fan et al., “Nanofluidic proteomic assay for serial analysis of oncoprotein activation in clinical specimens.” Nat Med 15:566-571 (2009).
# rat MCT model [4] = system: rat MCT model
# Method: At the end of the study RVSP pressure was measured; lung and heart fixed in formalin. For measurement of RVSP animals were sedated with isoflurane, intubated via a tracheostomy, and ventilated with a TOPOVENT pressure regulated ventilator (peak inspiratory pressure 18 cm H20, PEEP 5 cm). After sternotomy, a Scisense high fidelity catheter inserted via the RV apex.
# At the end of the study, the heart and lungs were removed from ventilated animals under general anesthesia. Heparinized saline was infused under pressure through the main pulmonary artery. […] The heart was removed, and the RV free wall, interventricular septum and LV free wall dissected and weighed. Buffered formalin (10%) was infused under pressure both through the pulmonary artery and the trachea. Morphometric analysis was performed on H&E stained formalin fixed tissue sectioned at 8 μm. The media area and lumen area of pulmonary arterioles were measured with Image J software by a technician blinded to treatment group. Measurements were made on 20 pulmonary arterioles per section. The ratio of the lumen area to the total media area was determined. This ratio normalizes the variation in total pulmonary arteriole area. […] Briefly, pre-capillary arterioles were assigned grade 0 for no evidence of neointimal lesions, grade 1 for less than 50% luminal occlusion, and grade 2 for greater than 50% occlusion.
# [5] = Aerosol particle size of nebulized drug, Anderson cascade impactor; format: physicochemical; conditions: 20 mg/ml in 1M tosylic acid, PARI nebulizer
# Method: PK10453 (Structure 2) was dissolved at a concentration of 20 mg/ml in 1M tosylic acid. Nebulization was performed with a PARI Nebulizer with an air pressure of 12.5 psi. The aerosol droplets were neutralized by ammonia vapor that was passed into the aerosol air stream. The particles were then dried by flowing through an annular ring of silica bead cartridges prior to reaching the exposure chamber. The 6-port exposure chamber was a nose-only exposure system custom designed and built by Powerscope Inc. (Minneapolis, Minn.). The vacuum flow rate at each port was separately controlled by a flow meter. The aerosol particle size was measured at the exit port of the drying column with an Anderson (Mark II) cascade impactor. The mass median aerodynamic diameter (MMAD) was 2 μm and the associated geometric standard deviation (GSD) was 1.6.
# [6] = system: PDGFBB stimulated AKT phosphorylation; assay: In cell Western, PDGFBB stimulated AKT phosphorylation in human fetal lung fibroblasts; format: cell-based; conditions: for IC50: Fibroblast
# Method: HLFs were maintained in subculture at no more than 6 passages in DMEM with 5% FBS and 4 mM Glutamax at 37° C., 5% CO2. HLFs were plated and grown to 70-80% confluence in 96 well plates then serum-starved for 48 hours. […] Antibodies were detected using IRDye 680LT goat anti-mouse IgG and IRDye 800 W goat α-rabbit IgG conjugated antibodies. After washing, the signal was quantified using an Odyssey Infrared Imaging System (LI-COR). Phosphoprotein signal (800 nm) was normalized to total protein signal (700 nm) acquired from each well and experimental duplicates on same plate were averaged and reported.
# rat MCT model [7] = assay: Efficacy in rat MCT model, PK10453 dose response; format: in vivo
# Method: Male Sprague Dawley rats received MCT 60 mg/kg IPMCT, and after 3 weeks, PK10453 (Structure 2) or vehicle control were administered by inhalation. Four groups were studied: vehicle control (4 min exposure) and three treatment groups of PK10453 (Structure 2) with exposure times 2 min (D2), 4 min (D4), or 8 min (D8) three times a day. These regimens were administered for two weeks. The vehicle consisted of aerosolized 1M tosylic acid neutralized with ammonia vapor as described above. The pH of a solution prepared by dissolving captured aerosol particles in water was measured for every dose and was consistently in the range of 5.5-6.0. At the end of the study, the RV systolic pressure was measured, and the heart chambers dissected and weighed.
# [8] = system: PDGFBB stimulated phosphorylation of ERK1 and ERK2; assay: PDGFBB stimulated phosphorylation of ERK1 and ERK2 in human fetal lung fibroblasts; format: cell-based
# From the text: Data shown are mean±SEM. […] PK10453=structure 2; PK10571=structure 2a. Platelet derived growth factor receptor alpha=PDGFR-alpha=PDGFR-α=PDGF receptor alpha=PDGF alpha receptor. Platelet derived growth factor receptor beta=PDGFR-beta=PDGFRβ=PDGF receptor beta=PDGF beta receptor.
# [9] = Pharmacokinetic study, inhaled vs intravenous, lung and plasma levels; format: in vivo, rat; conditions: [(AUClung/AUCplasma)respiratory]/[(AUClung/AUCplasma)IV]
# Method: PK10453 (Structure 2) was administered intravenously or by inhalation to animals, which were then euthanized at time 0, 10, 20, and 60 min (n=3 each time point). Blood samples were taken by cardiac puncture, and the lungs excised. The lungs were homogenized and PK10453 (Structure 2) extracted with a 1:3 mixture of acetonitrile:methanol. Similarly, plasma was extracted with a 1:3 mixture of acetonitrile:methanol. Drug was assayed by LC MS/MS (PharmOptima Inc., Portage Mich.). First order exponential curves were fit to the data with Excel. AUC was determined with the trapezoidal method of integration.
# For the pharmacokinetic study, the concentration of PK10453 (Structure 2) in lung when administered by inhalation was compared to the concentration achieved with IV administration. As described in Moren “Aerosols in medicine: principles, diagnosis, and therapy.” Amsterdam; New York: Elsevier, xx, 429 (1993) and Phalen et al., “Inhalation exposure methodology.” Environ Health Perspect 56:23-34 (1984)), it is possible to estimate the pharmacokinetic advantage of inhalation relative to intravenous administration, Rd, by comparing the AUC of a plot of the drug concentration as a function of time following respiratory and IV administration: […]
# The pharmacokinetic data was modeled to a first order exponential curve, and the AUC calculated from the curves (see Table 2). […]
# [10] = Fluorescent imaging of lung distribution after inhalation with IR780 tracer; format: in vivo, rat; conditions: 2 min inhalation with IR780 tracer
# Method: A near IR fluorescent tracer, IR-780, was added to the drug solution in the nebulizer to ensure dried aerosol particles contained both the drug and IR tracer. After a two min exposure, animals were placed under general anesthesia underwent intubation via tracheostomy, and the lungs were excised. OCT/PBS was infused via the pulmonary artery, the lung insufflated with air, and the lungs frozen in the vapor phase of liquid nitrogen. Serial approximate 2 mm sections of lung were imaged on a Licor Odyssey Imager.
# [11] = 8 min inhalation three times a day, two weeks
# PDGFRbeta, sequence (P09619 600-962 limits assumed): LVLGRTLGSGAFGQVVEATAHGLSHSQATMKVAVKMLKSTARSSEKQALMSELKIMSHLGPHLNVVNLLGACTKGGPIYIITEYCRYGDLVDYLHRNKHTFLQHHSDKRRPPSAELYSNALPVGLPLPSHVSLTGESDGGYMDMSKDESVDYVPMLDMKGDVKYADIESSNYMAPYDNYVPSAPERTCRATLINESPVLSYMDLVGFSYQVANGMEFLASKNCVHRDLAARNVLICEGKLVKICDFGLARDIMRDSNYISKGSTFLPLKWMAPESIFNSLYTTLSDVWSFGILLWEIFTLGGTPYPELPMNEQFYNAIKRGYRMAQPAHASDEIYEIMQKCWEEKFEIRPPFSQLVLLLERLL
compound,measurement,setting,value
"COc1cc(-c2cncc(N[C@@H](C)c3cccc(NC(=O)c4cncc(C)c4)c3)n2)ccc1O [PK10453, (S)—N-(3-(1-((6-(4-hydroxy-β-methoxyphenyl)pyrazin-2yl)amino)ethyl)phenyl)-5-methylnicotinamide]",body weight compared to vehicle,[1],trend to a slower rate of decline
same,potency against PDGFR beta kinase domain relative to imatinib,PDGFRbeta,more potent than imatinib
same,systolic BP,"[2]; MCT rats, day seven of treatment, 4 min exposure 3×/d",131±10 mmHg
same,effect on systemic BP,[2]; rat MCT model,did not have an adverse effect
same,pAKT(Ser473)/AKT ratio in lung extracts,[3],significant reduction
same,pERK1/ERK1 in lung homogenates,[3]; D4 and D8 compared to vehicle,significant reductions
same,pSTAT3/STAT3 ratio in lung,[3]; D4 and D8 compared to vehicle,significant reduction
same,ppERK1/ERK1 in lung homogenates,[3]; D4 and D8 compared to vehicle,significant reductions
same,pAKT(Thr308)/AKT ratio in lung extracts,"[3]; V, D4, D8",not significantly different
same,"end diastolic volume, ejection fraction, cardiac output, stroke work, difference between groups",rat MCT model [4],no significant differences
same,Lumen/Media ratio,rat MCT model [4]; 8 min exposures,0.94±0.08
same,End systolic volume,rat MCT model [4]; [11],99.5 µL
same,RV end systolic pressure,rat MCT model [4]; [11],36.3±2.6 mm Hg
same,mass median aerodynamic diameter (MMAD) of dried nebulized aerosol,[5],2 μm
same,IC50,"[6]; human fetal lung fibroblasts, 10 ng/ml PDGFBB, read-out: IC50 for PDGFBB stimulated AKT phosphorylation at Ser473",0.13 µM
same,IC50,"[6]; human fetal lung fibroblasts, 10 ng/ml PDGFBB, read-out: IC50 for PDGFBB stimulated AKT phosphorylation at Thr308",0.43 µM
same,IC50,"[6]; human fetal lung fibroblasts, legend of FIG. 2 PANEL C, read-out: IC50 for PDGFBB stimulation of pAKT(Ser473)",0.13 µM
same,IC50,"[6]; Homo sapiens, FIG. 26, each concentration in duplicate, read-out: IC50, PDGF BB stimulated pAKT in human lung fibroblasts",0.15 µM
same,IC50 for inhibiting PDGFBB stimulated AKT phosphorylation relative to imatinib,"[6]; fetal human lung fibroblasts, FIG. 18",lower IC50 concentration compared to imatinib
same,"degree of RV hypertrophy, ratio (RV+IVS)/LV weight",rat MCT model [7]; rat MCT,significant reduction
same,decrease of RV systolic pressure,"rat MCT model [7]; rat MCT model, discussion",50%
same,reduction in RVSP compared to the vehicle treated group,"rat MCT model [7]; rat MCT, D4",44%
same,reduction in RVSP compared to the vehicle treated group,"rat MCT model [7]; rat MCT, D8",54%
same,decrease of PDGF BB stimulated ppERK1 and ppERK2 relative to imatinib,[8]; 1 uM and 10 uM,more effective
same,decrease of PDGFBB stimulated ppERK1 formation,"[8]; 1 uM, PDGF BB 10 ng/ml",effective
same,ratio diphosphorylated ERK2 to total ERK2 (ppERK2/ERK2),"[8]; PDGFAA or PDGFBB stimulation (10 ng/ml), 1 uM and 10 uM",significantly decreased
same,ratio diphosphorylated ERK1 to total ERK1 (ppERK1/ERK1),"[8]; PDGFAA or PDGFBB stimulation, 1 μM and 10 μM",significantly decreased
same,"Rd, pharmacokinetic advantage of inhalation relative to intravenous administration",[9],44.6 fold and 45 fold and 44.58 fold
same,spatial distribution in lung after inhalation,[10],well distributed throughout the lungs
